Test results taken from US20240262801A1, “COMPOUNDS HAVING 5-(2-FLUORO-6-HYDROXYPHENYL)-1,2,5-THIADIAZOLIDIN-3-ONE 1,1-DIOXIDE AS INHIBITORS OF PROTEIN KINASE PHOSPHATASE ENZYMES” (Ness Therapeutics, Inc., priority 2021, published 2024).
Where a name gives a salt, the structure may show the parent alone. Read-outs that look alike come from different tables or passages of the source.

Experiments:
GST-tagged PTPN2 protein = biological target: T1, GST-tagged PTPN2 protein (Homo sapiens, UniProt P17706); experiment: Primary assay of PTPN2 enzymatic activity inhibition (DiFMUP fluorescence); format: biochemical; conditions: DiFMUP substrate 2 μM, 60 min at RT
T1 construct: purchased ActiveMotif 31592
T1 sequence (P17706 with tags, fused parts or gaps): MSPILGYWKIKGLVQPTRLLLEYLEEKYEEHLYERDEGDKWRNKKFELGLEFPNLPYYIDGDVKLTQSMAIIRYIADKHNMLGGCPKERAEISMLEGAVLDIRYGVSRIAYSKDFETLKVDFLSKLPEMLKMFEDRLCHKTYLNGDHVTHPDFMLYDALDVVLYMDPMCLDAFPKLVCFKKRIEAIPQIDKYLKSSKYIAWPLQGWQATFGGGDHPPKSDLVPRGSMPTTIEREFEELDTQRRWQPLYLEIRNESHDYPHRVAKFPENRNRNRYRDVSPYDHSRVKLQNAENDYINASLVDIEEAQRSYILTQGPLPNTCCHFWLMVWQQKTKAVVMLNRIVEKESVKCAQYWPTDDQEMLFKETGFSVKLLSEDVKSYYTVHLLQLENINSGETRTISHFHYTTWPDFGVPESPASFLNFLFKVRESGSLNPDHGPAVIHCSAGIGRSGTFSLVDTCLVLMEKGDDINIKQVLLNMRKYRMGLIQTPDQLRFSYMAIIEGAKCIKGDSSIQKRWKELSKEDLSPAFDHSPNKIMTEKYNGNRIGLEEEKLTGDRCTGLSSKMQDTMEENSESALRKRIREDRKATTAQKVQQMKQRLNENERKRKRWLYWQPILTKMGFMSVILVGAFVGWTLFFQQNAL
Experimental: Compound activity was determined using GST-tagged PTPN2 protein (Cat #31592, ActiveMotif) (SEQ ID NO: 1) in an in vitro enzymatic reaction. The enzymatic reaction was carried out in assay buffer (50 mM HEPES Na salt pH 7.2-7.4, 2 mM EDTA, 100 mM NaCl, 52 ng/μL BSA, and 6 mM DTT). The compounds were dispensed on a 384 well Diamond Well Plate (Axigen, Cat #P-384-120SQ-C-S) using the Biomek FX liquid handling system at 100× solutions of compounds in DMSO. 2× PTPN2 (final concentration 0.004 ng/μL) was prepared in 1× Assay buffer and 25 μL of mixture per well was added into Reaction plate (Optiplate, black, Perkin Elmer, Cat #6007270). Add 25 μL of 1× buffer to Ctrl- (Substrate w/o PTPN2) wells followed by centrifugation at 100 g for 1 min. Next step the Compounds were added to Reaction plate using Biomek station via following steps: 3 ul of 100× compounds (in DMSO) were mixed with 27 μL of Assay Buffer, then 5 μL of this mixture was added to Reaction plate with 25 μL of PTPN2 Mix. Plates were centrifuged for 1 min at 100 g and incubated for another 10 minutes at room temperature. Finally, 20 μL of 2.5× Substrate (DiFUMP, Invitrogen™ Cat #D6567) mix was added into appropriate wells of Reaction plate to the final concentration of 2 μM, plate was centrifuged at 100 g for 1 min followed by incubation at RT for 60 min, and the Fluorescence Intensity was measured using a Microplate Reader (ClarioStar Plus, excitation 360 nm, emission 450 nm). The % inhibition was then used to calculate the IC50 values. The IC50 values are shown in Table A1, wherein “A” corresponds to IC50<5.0 nm, “B” corresponds to 5.0 nm≤IC50<10.0 nm, “C” corresponds to 10.0 nm≤IC50<50.0 nm, “D” corresponds to 50.0 nm≤IC50<100.0 nm, and “E” corresponds to 100.0 nm≤IC50<500.0 nm, and “F” corresponds to 500.0 nm≤IC50.

[1] = tested on: B16F10 mouse melanoma cells; experiment: Tumor cells B16F10 cellular growth IFNγ-induced inhibition assay (CellTiter-Glo); format: cell-based; conditions: for IC50: B16-F10, 72 h, 3 days incubation; for inhibition at 100 µM: B16-F10, B16F10, 100 μM compound
Experimental: B16F10 mouse melanoma cells (ATCC Cat #CRL-6475) were seeded at a density of 500 cells per well in a 384-well clear bottom plate (Corning Cat #3712, Corning, N.Y.) in 40 μL total volume of DMEM+10% FBS (PanEco Cat #C420, Russia and Sigma Cat #F4135, St. Louis, Mo.). Cells were allowed to adhere overnight at 37° C., 5% CO2. On the following day, 250× solutions of compounds in DMSO (Sigma Cat #D2650) were prepared into […] plate (Diamond Well Plate, Axigen, Cat #P-384-120SQ-C-S) (final concentration of 1×) and DMSO only controls were included. Dilution Plate (Diamond Well Plate (Axigen, Cat #P-384-120SQ-C-S) was prepared by adding 49 μL of culture medium per well: half of the plate with culture medium only, half with culture medium+IFNγ (5 ng/ml). A 1 μL aliquot of 250× compounds ([…] plate) was added to 49 μL of culture medium (Dilution plate), then a 10 μL aliqut of the mixture was transferred to Reaction plate with 40 μL of cells followed by centrifugation at 240 g for 1 min. After 3 days of incubation, 10 μL of CellTiter-Glo (Promega) was added to the cells, plates were centrifuged at 240 g for 1 min, and luminescence signal was measured. For each compound, the percent growth inhibition at every compound dose level was calculated relative to the “DMSO/with IFNγ” control and used to determine the IC50.

[2] = B16F10, + IFNγ, read-out: IC50 + IFNγ
[3] = B16F10, no IFNγ, read-out: IC50 no IFNγ
[4] = + IFNγ, read-out: % Growth Inhibition at 100 μM + IFNγ
[5] = no IFNγ, read-out: % Growth Inhibition at 100 μM no IFNγ

Compound | IC50 (GST-tagged PTPN2 protein) [nM] | IC50 [1, 2] [nM] | IC50 [1, 3] [nM] | inhibition at 100 µM [1, 4] [%] | inhibition at 100 µM [1, 5] [%]
CC(C)(C)OC(=O)N1CCC(NC(=O)Nc2cc(O)c(N3CC(=O)NS3(=O)=O)c(F)c2)CC1 [Example 98, tert-butyl 4-[[3-fluoro-5-hydroxy-4-(1,1,4-trioxo-1,2,5-thiadiazolidin-2-yl)phenyl]carbamoyl-amino]piperidine-1-carboxylate] | 10 to 50 | ≥ 100000 | ≥ 100000 | 10 to 50 | 10 to 50
Cc1ccc(-c2cc(C(F)(F)F)nn2-c2ccc(S(=O)(=O)Nc3cc(O)c(N4CC(=O)NS4(=O)=O)c(F)c3)cc2)cc1 [Example 19, N-[4-(1,1-dioxido-4-oxo-1,2,5-thiadiazolidin-2-yl)-3-fluoro-5-hydroxyphenyl]-4-[5-(4-methylphenyl)-3-(trifluoromethyl)-1H-pyrazol-1-yl]benzenesulfonamide] | 100 to 500 | ≥ 100000 | ≥ 100000 | 10 to 50 | 10 to 50
O=C1CN(c2c(O)cc(-c3cccc(NC4CCN(S(=O)(=O)Cc5ccccc5)CC4)c3)cc2F)S(=O)(=O)N1 [Example 12, 5-(3′-{[1-(benzylsulfonyl)piperidin-4-yl]amino}-3-fluoro-5-hydroxybiphenyl-4-yl)-1,2,5-thiadiazolidin-3-one 1,1-dioxide] | 100 to 500 | ≥ 100000 | ≥ 100000 | 10 to 50 | 10 to 50
CC(C)(C)OC(=O)N1CCCC(NC(=O)Nc2cc(O)c(N3CC(=O)NS3(=O)=O)c(F)c2)C1 (centres unmarked) [Example 106, tert-butyl 3-[[3-fluoro-5-hydroxy-4-(1,1,4-trioxo-1,2,5-thiadiazolidin-2-yl)phenyl]carbamoylamino]piperidine-1-carboxylate] | < 5 | 50000 to 100000 | ≥ 100000 | 50 to 75 | 10 to 50
O=C1CN(c2c(O)cc(NC(=O)NCC3CNCC34CCCCC4)cc2F)S(=O)(=O)N1 (centres unmarked) [Example 100, 1-(2-azaspiro[4.5]decan-4-ylmethyl)-3-[3-fluoro-5-hydroxy-4-(1,1,4-trioxo-1,2,5-thiadiazolidin-2-yl)phenyl]urea] | 10 to 50 | 10000 to 50000 | ≥ 100000 | 50 to 75 | 10 to 50
CN(C1CCCCC1)S(=O)(=O)Nc1cc(O)c(N2CC(=O)NS2(=O)=O)c(F)c1 [Example 32, N-cyclohexyl-N′-[4-(1,1-dioxido-4-oxo-1,2,5-thiadiazolidin-2-yl)-3-fluoro-5-hydroxyphenyl]-N-methylsulfuric diamide] | 10 to 50 | – | – | – | –
Cc1ccccc1-c1cc(O)c(N2CC(=O)NS2(=O)=O)c(F)c1 [Example 6, 5-(3-fluoro-5-hydroxy-2′-methylbiphenyl-4-yl)-1,2,5-thiadiazolidin-3-one 1,1-dioxide] | ≥ 500 | – | – | – | –
CN(c1ccccc1)S(=O)(=O)Nc1cc(O)c(N2CC(=O)NS2(=O)=O)c(F)c1 [Example 31, N′-[4-(1,1-dioxido-4-oxo-1,2,5-thiadiazolidin-2-yl)-3-fluoro-5-hydroxyphenyl]-N-methyl-N-phenylsulfuric diamide] | 10 to 50 | – | – | – | –
Cc1cccc(-c2cc(O)c(N3CC(=O)NS3(=O)=O)c(F)c2)c1 [Example 9, 5-(3-fluoro-5-hydroxy-3′-methylbiphenyl-4-yl)-1,2,5-thiadiazolidin-3-one 1,1-dioxide] | 100 to 500 | – | – | – | –
Cc1ccc(-c2cc(O)c(N3CC(=O)NS3(=O)=O)c(F)c2)cc1 [Example 10, 5-(3-fluoro-5-hydroxy-4′-methylbiphenyl-4-yl)-1,2,5-thiadiazolidin-3-one 1,1-dioxide] | 100 to 500 | – | – | – | –

Second part, led by results:

IC50 (GST-tagged PTPN2 protein) [nM] | IC50 [1, 2] [nM] | IC50 [1, 3] [nM] | Compound | inhibition at 100 µM [1, 4] [%] | inhibition at 100 µM [1, 5] [%]
10 to 50 | 10000 to 50000 | ≥ 100000 | O=C1CN(c2c(O)cc(NC(=O)NCC3CCCO3)cc2F)S(=O)(=O)N1 (centres unmarked) [Example 57, 1-[4-(1,1-dioxido-4-oxo-1,2,5-thiadiazolidin-2-yl)-3-fluoro-5-hydroxyphenyl]-3-(tetrahydrofuran-2-ylmethyl)urea] | 50 to 75 | 10 to 50
10 to 50 | 10000 to 50000 | ≥ 100000 | COc1ccc(S(=O)(=O)Nc2cc(O)c(N3CC(=O)NS3(=O)=O)c(F)c2)cc1 [Example 25, N-[4-(1,1-dioxido-4-oxo-1,2,5-thiadiazolidin-2-yl)-3-fluoro-5-hydroxyphenyl]-4-methoxybenzenesulfonamide] | 50 to 75 | 10 to 50
< 5 | < 5000 | ≥ 100000 | O=C1CN(c2c(O)cc(NC(=O)NC3CCCCC3)cc2F)S(=O)(=O)N1 [Example 56, 1-cyclohexyl-3-[4-(1,1-dioxido-4-oxo-1,2,5-thiadiazolidin-2-yl)-3-fluoro-5-hydroxyphenyl]urea] | 75 to 100 | 10 to 50
< 5 | – | – | CC(C)c1ccc(NC(=O)Nc2cc(O)c(N3CC(=O)NS3(=O)=O)c(F)c2)cc1 [Example 70, 1-[4-(1,1-dioxido-4-oxo-1,2,5-thiadiazolidin-2-yl)-3-fluoro-5-hydroxyphenyl]-3-[4-(propan-2-yl)phenyl]urea] | – | –
10 to 50 | – | – | O=C1CN(c2c(O)cc(NC(=O)NCc3ccccc3)cc2F)S(=O)(=O)N1 [Example 60, 1-benzyl-3-[4-(1,1-dioxido-4-oxo-1,2,5-thiadiazolidin-2-yl)-3-fluoro-5-hydroxyphenyl]urea] | – | –
< 5 | – | – | O=C1CN(c2c(O)cc(NC(=O)Nc3ccc(OC(F)(F)F)cc3)cc2F)S(=O)(=O)N1 [Example 71, 1-[4-(1,1-dioxido-4-oxo-1,2,5-thiadiazolidin-2-yl)-3-fluoro-5-hydroxyphenyl]-3-[4-(trifluoromethoxy)phenyl]urea] | – | –
< 5 | – | – | O=C1CN(c2c(O)cc(NC(=O)Nc3ccccc3F)cc2F)S(=O)(=O)N1 [Example 93, 1-[4-(1,1-dioxido-4-oxo-1,2,5-thiadiazolidin-2-yl)-3-fluoro-5-hydroxyphenyl]-3-(2-fluorophenyl)urea] | – | –
< 5 | – | – | COc1ccc(NC(=O)Nc2cc(O)c(N3CC(=O)NS3(=O)=O)c(F)c2)cc1C(F)(F)F [Example 68, 1-[4-(1,1-dioxido-4-oxo-1,2,5-thiadiazolidin-2-yl)-3-fluoro-5-hydroxyphenyl]-3-[4-methoxy-3-(trifluoromethyl)phenyl]urea] | – | –
< 5 | – | – | O=C1CN(c2c(O)cc(NC(=O)Nc3ccc(N4CCNCC4)cc3)cc2F)S(=O)(=O)N1 [Example 67, 1-[4-(1,1-dioxido-4-oxo-1,2,5-thiadiazolidin-2-yl)-3-fluoro-5-hydroxyphenyl]-3-[4-(piperazin-1-yl)phenyl]urea hydrochloride] | – | –
< 5 | – | – | O=C1CN(c2c(O)cc(NC(=O)Nc3ccc(N4CCOCC4)cc3)cc2F)S(=O)(=O)N1 [Example 65, 1-[4-(1,1-dioxido-4-oxo-1,2,5-thiadiazolidin-2-yl)-3-fluoro-5-hydroxyphenyl]-3-[4-(morpholin-4-yl)phenyl]urea] | – | –
< 5 | – | – | CC(C)(C)OC(=O)N1CCN(c2ccc(NC(=O)Nc3cc(O)c(N4CC(=O)NS4(=O)=O)c(F)c3)cc2)CC1 [Example 66, tert-butyl 4-[4-({[4-(1,1-dioxido-4-oxo-1,2,5-thiadiazolidin-2-yl)-3-fluoro-5-hydroxyphenyl]carbamoyl}amino)phenyl]piperazine-1-carboxylate] | – | –
